Structures can show the parent of a compound that is named as a salt.
Assays:
[1] = in vivo ultrafiltration volume, intraperitoneal volume by Texas Red labelled albumin dilution; settings: 10 mM citrate in PD fluid; 2 hours after infusion; FIG. 2
Description: The lower limit of the citrate concentration is evident from FIG. 1, where a reasonable inhibited complement cascade is provided with a citrate concentration of at least 4 mM. The ultrafiltration volume was determined with the aid of a fluorescence labelled albumin. This was used as volume marker according to a recently developed technique, in which Texas Red® labelled bovine serum albumin (TR-BSA) has been used as a tracer for determinations of plasma volume. The fluorescence characteristics of TR-BSA (Molecular Probes, Eugene, Oreg., USA) solved in fresh and used PD fluid were evaluated, showing a linear relationship between fluorescence (excitation at 570 nm and emission at 615 nm) and concentration in the range of 0-20 μg/ml. By adding 1 mg/ml of unlabeled bovine serum albumin, a small difference in baseline fluorescence between the fresh and the used PD fluid was eliminated. […] In the present tests, 100 μg Texas Red® labelled bovine serum albumin and 1 mg unlabeled BSA was added to 20 ml PD fluid and intraperitoneal volumes were determined from the dilution calculated from fluorescence values of cell-free samples. The intraperitoneal volumes obtained from measurements of Texas Red® albumin after PD fluid exposure increased when citrate was added to the PD fluid, see FIG. 2. The citrate concentration used in the test of FIG. 2 was 10 mM.

[2] = test system: complement activation (C3a-desarg); assay: in vitro complement activation, C3a-desarg measured by ELISA after Zymosan addition; format: biochemical, rat
Description: The complement activation was determined from the concentration of C3a-desarg measured by ELISA (rat C3adesARG ELISA #CL89160K; Cedarlane Laboratories Ltd., Hornby, Ontario, Canada). The C3a-desarg levels were expressed as concentrations. Venous blood was used and introduced in a lepirudin treated 5 cc syringe (50 μl lepirudin (5 mg/ml)+70 μl PBS in the syringe and needle). 0.4 ml was transferred to a 3 cc tube with 1.5 ml PD fluid with citrate additions of 0, 2, 4, 6, 8, and 10 mM, respectively, (i.e. 0, 12, 24, 36, 48, 60 μl of a citrate solution with the citrate concentration of 250 mM). Thereafter the samples were spun to remove the blood cells. 1 ml of the supernatant was transferred to a new tube, 20 μl Zymosan (20 mg/ml) was added and the tube. Thereafter EDTA was added to a final concentration of 15 mM, the Zymosan was spun down, and samples of the supernatant were used for the ELISA measurement referred to above. […] However, the upper limit of citrate, which could be present in a PD fluid, is limited by the total amount of buffer solution within the PD fluid. The amount of added citrate influence the total amount of buffer in the PD fluid since citrate also give rise to a buffer effect. Thus, the buffer used in the PD fluid has to be decreased equal to the equivalent amount of added citrate. […]

With `O=C(O)CC(O)(CC(=O)O)C(=O)O` [citrate, tri-sodium citrate] the “intraperitoneal volumes (ultrafiltration) after PD fluid exposure” value [1] was “increased”, the “citrate concentration providing a reasonable inhibited complement cascade” value ([2]; read from FIG. 1, lower limit of citrate in PD fluid) was “at least 4 mM” and the “C3a-desarg concentration (complement activation)” value ([2]; venous blood in PD fluid with citrate additions of 0, 2, 4, 6, 8 and 10 mM, Zymosan, FIG. 1) was “decreased with increasing citrate concentration”.

Source: patent US8367731B2, “Peritoneal dialysis fluid” (Fresenius Medical Care Deutschland GmbH, priority 2005, dated 2013)
